In patent US10189839B2, “Tricyclic imidazole compounds as inhibitors of tryptophan hydroxylase” (ACTELION PHARMACEUTICALS LTD, priority 2013, dated 2019):

target: T1, full length human TPH1 (Homo sapiens, UniProt P17752); test: Biochemical in vitro assay using fluorescence readout (TPH1 enzyme activity); details: Table 1, mean where determined several times
T1 construct: To generate the enzyme, full length human TPH1 is cloned into the plasmid pET20b(+); made in house; host or cells: E. coli
T1 sequence (P17752 1-444): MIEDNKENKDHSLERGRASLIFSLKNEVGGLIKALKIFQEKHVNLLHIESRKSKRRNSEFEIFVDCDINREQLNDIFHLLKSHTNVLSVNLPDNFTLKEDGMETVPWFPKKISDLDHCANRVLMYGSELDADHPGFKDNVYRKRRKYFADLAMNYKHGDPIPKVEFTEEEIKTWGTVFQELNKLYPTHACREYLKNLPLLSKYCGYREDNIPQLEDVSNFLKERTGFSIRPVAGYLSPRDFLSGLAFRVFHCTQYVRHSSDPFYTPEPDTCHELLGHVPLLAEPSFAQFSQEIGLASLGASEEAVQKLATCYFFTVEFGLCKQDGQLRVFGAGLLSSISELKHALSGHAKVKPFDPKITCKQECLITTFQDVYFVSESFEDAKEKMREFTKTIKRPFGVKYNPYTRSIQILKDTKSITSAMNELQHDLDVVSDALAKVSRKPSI
Description: Inhibitory activities on tryptophan hydroxylase 1 have been measured for each example compound using the following procedure:
Biochemical In Vitro Assay Using Fluorescence Readout
To generate the enzyme, full length human TPH1 is cloned into the plasmid pET20b(+) (Novagen) and expressed in E. coli. The bacterial cells are ruptured by sonication on ice and the lysate is cleared by centrifugation. The resulting protein in the pellet is re-extracted and TPH1 is purified from the obtained lysate by affinity chromatography using a pterin cosubstrate analog immobilized to the resin of the column. The protein is further purified by size exclusion chromatography to remove protein aggregates. The activity of TPH1 is determined by using a fluorescence assay. The enzyme activity assay is carried out at 15° C. with atmosphere oxygen for the duration of 60 minutes in a volume of 64 μl. The reaction is carried out in a 0.1M Tris-HCl buffer, adjusted to pH 7.6, containing 1 mM DTT, 0.2 mg/ml catalase, 100 μM (±)-6-methyl-5,6,7,8-tetrahydropterine dihydrochloride, 40 μM L-tryptophan, and 40-80 nM of TPH1. The reaction is started by bringing together L-tryptophan with all the other reaction substituents and stopped by quenching with perchloric acid (HClO4). The amount of 5-hydroxy-L-tryptophan produced during the enzymatic reaction is determined by fluorescence readout. Fluorescence, as determined at 540 nm when excited at 300 nm wavelength, increases proportionally to the 5-hydroxy-L-tryptophan formed. Compounds are prepared as 10 mM stock solution in DMSO, then diluted in 384-well plates using DMSO followed by a transfer of the dilutions into the assay plate. Fluorescence is measured for each well and the fluorescence at 540 nm wavelength is compared to the fluorescence of the vehicle in place of compound. Inhibitory activities of example compounds with respect to the TPH1 protein are determined by calculating the IC50 value (the concentration of compound needed to inhibit 50% of the enzyme activity). The calculated IC50 values may fluctuate depending on the daily biochemical assay performance. Fluctuations of this kind are known to those skilled in the art. In the case where IC50 values have been determined several times for the same compound, the mean is given.

Question: With `CN(c1ccc(OCC(=O)N2CCc3nc4n(c3C2c2ccc(Cl)cc2F)CCCC4)c(Cl)n1)S(C)(=O)=O` (centres unmarked) [Example 1.1.9, N-(6-chloro-5-(2-(1-(4-chloro-2-fluorophenyl)-3,4,6,7,8,9-hexahydroimidazo[1,2-a:5,4-c′]dipyridin-2(1H)-yl)-2-oxoethoxy)pyridin-2-yl)-N-methylmethanesulfonamide] as the molecule, how does the IC50 read?
Answer: Its IC50 is 0.025 µM.

Question: Which IC50 does the source give for `CCc1nc(NS(C)(=O)=O)ccc1OCC(=O)N1CCc2nc3n(c2C1c1sccc1F)CCCC3` (centres unmarked) [Example 1.14.1, N-(6-ethyl-5-(2-(1-(3-fluorothiophen-2-yl)-3,4,6,7,8,9-hexahydroimidazo[1,2-a:5,4-c′]dipyridin-2(1H)-yl)-2-oxoethoxy)pyridin-2-yl)methanesulfonamide] here?
Answer: The IC50 was 0.016 µM.

Question: For `O=C(NC1CC1)c1ccc(OCC(=O)N2CCc3nc4n(c3C2c2ccc(C3CC3)cc2F)CCCC4)c(Cl)n1` (centres unmarked) [Example 1.8.5, 6-chloro-N-cyclopropyl-5-(2-(1-(4-cyclopropyl-2-fluorophenyl)-3,4,6,7,8,9-hexahydroimidazo[1,2-a:5,4-c′]dipyridin-2(1H)-yl)-2-oxoethoxy)picolinamide], which IC50 is on record?
Answer: Its IC50 is 0.024 µM.

Question: How did the IC50 turn out when `CCN(C)C(=O)c1ccc(OCC(=O)N2CCc3nc4n(c3C2c2ccc(Cl)cc2F)CCCC4)c(Cl)n1` (centres unmarked) [Example 1.1.7, 6-chloro-5-(2-(1-(4-chloro-2-fluorophenyl)-3,4,6,7,8,9-hexahydroimidazo[1,2-a:5,4-c′]dipyridin-2(1H)-yl)-2-oxoethoxy)-N-ethyl-N-methylpicolinamide] was run?
Answer: Its IC50 is 0.025 µM.

Question: Which IC50 does the source give for `Cc1nc(C)c(C2c3c(nc4n3CCCC4)CCN2C(=O)COc2ccc(-c3ncco3)nc2Cl)s1` (centres unmarked) [Example 1.10.3, 2-((2-chloro-6-(oxazol-2-yl)pyridin-3-yl)oxy)-1-(1-(2,4-dimethylthiazol-5-yl)-3,4,6,7,8,9-hexahydroimi-dazo[1,2-a:5,4-c′]dipyridin-2(1H)-yl)ethanone] here?
Answer: The IC50 was 0.016 µM.

Question: How did the IC50 turn out when `CCc1nc(N2CCCS2(=O)=O)ccc1OCC(=O)N1CCc2nc3n(c2C1c1sc(C)nc1C)CCCC3` (centres unmarked) [Example 1.10.19, 1-(1-(2,4-dimethylthiazol-5-yl)-3,4,6,7,8,9-hexahydroimidazo[1,2-a:5,4-c′]dipyridin-2(1H)-yl)-2-((6-(1,1-dioxidoisothiazolidin-2-yl)-2-ethylpyridin-3-yl)oxy)ethan-1-one] was run?
Answer: The IC50 was 0.011 µM.

Question: Which IC50 does the source give for `CS(=O)(=O)Nc1ccc(OCC(=O)N2CCc3nc4n(c3C2c2ccc(C#N)cc2F)CCCC4)c(Cl)n1` (centres unmarked) [Example 1.22.1, N-(6-chloro-5-(2-(1-(4-cyano-2-fluorophenyl)-3,4,6,7,8,9-hexahydroimidazo[1,2-a:5,4-c′]dipyridin-2(1H)-yl)-2-oxoethoxy)pyridin-2-yl)methanesulfonamide] here?
Answer: Its IC50 is 0.048 µM.

Question: `CS(=O)(=O)Nc1ccc(OCC(=O)N2CCc3nc4n(c3C2c2ccc(Cl)cc2F)CCOC4)c(Cl)n1` (centres unmarked) [Example 6.1.2, N-(6-chloro-5-(2-(6-(4-chloro-2-fluorophenyl)-3,4,8,9-tetrahydro-1H-pyrido[4′,3′:4,5]imidazo[2,1-c][1,4]oxazin-7(6H)-yl)-2-oxoethoxy)pyridin-2-yl)methanesulfonamide] was tested. Which IC50 did it give?
Answer: The IC50 was 0.018 µM.

Question: For `CC(C)(O)c1ccc(C2c3c(nc4n3CCCC4)CCN2C(=O)COc2ccc(C(=O)NC3CC3)nc2Cl)c(F)c1` (centres unmarked) [Example 1.24.1, 6-chloro-N-cyclopropyl-5-(2-(1-(2-fluoro-4-(2-hydroxypropan-2-yl)phenyl)-3,4,6,7,8,9-hexahydroimidazo[1,2-a:5,4-c′]dipyridin-2(1H)-yl)-2-oxoethoxy)picolinamide], which IC50 is on record?
Answer: The IC50 was 0.068 µM.

Question: With `CS(=O)(=O)Nc1ccc(OCC(=O)N2CCc3nc4n(c3C2c2ccc(C3CC3)cc2F)CCCC4)c(Cl)n1` (centres unmarked) [Example 1.8.3, N-(6-chloro-5-(2-(1-(4-cyclopropyl-2-fluorophenyl)-3,4,6,7,8,9-hexahydroimidazo[1,2-a:5,4-c′]dipyridin-2(1H)-yl)-2-oxoethoxy)pyridin-2-yl)methanesulfonamide] as the molecule, how does the IC50 read?
Answer: The IC50 was 0.022 µM.

Question: For `CC(=O)N1CCn2c(nc3c2C(c2ncc(C)cc2F)N(C(=O)COc2ccc(N4CCOCC4)nc2Cl)CC3)C1` (centres unmarked) [Example 5.8.1, 1-(7-acetyl-1-(3-fluoro-5-methylpyridin-2-yl)-3,4,6,7,8,9-hexahydropyrido[4′,3′:4,5]imidazo[1,2-a]pyrazin-2(1H)-yl)-2-((2-chloro-6-morpholinopyridin-3-yl)oxy)ethanone], which IC50 is on record?
Answer: Its IC50 is 0.011 µM.

Question: For `COC(=O)c1ccc(C2c3c(nc4n3CCCC4)CCN2C(=O)COc2ccc(NS(C)(=O)=O)nc2Cl)c(F)c1` (centres unmarked) [Example 1.23.1, methyl-4-(2-(2-((2-chloro-6-(methylsulfonamido)pyridin-3-yl)oxy)acetyl)-1,2,3,4,6,7,8,9-octahydroimidazo[1,2-a:5,4-c′]dipyridin-1-yl)-3-fluorobenzoate], which IC50 is on record?
Answer: Its IC50 is 0.021 µM.

Question: Which IC50 does the source give for `Cc1ccc(C2c3c(nc4n3CCN(C(=O)OC(C)(C)C)C4)CCN2C(=O)COc2ccc(CN3CCOCC3)cc2Cl)c(F)c1` (centres unmarked) [Example 5.12.1, tert-butyl 2-(2-(2-chloro-4-(morpholinomethyl)phenoxy)acetyl)-1-(2-fluoro-4-methylphenyl)-1,2,3,4,8,9-hexahydropyrido[4′,3′:4,5]imidazo[1,2-a]pyrazine-7(6H)-carboxylate] here?
Answer: Its IC50 is 0.31 µM.

Question: For `CCNC(=O)Nc1nc(C2c3c(nc4n3CCN(C(C)=O)C4)CCN2C(=O)COc2ccc(N3CCOCC3)nc2Cl)cs1` (centres unmarked) [Example 5.11.1, 1-(4-(7-acetyl-2-(2-((2-chloro-6-morpholinopyridin-3-yl)oxy)acetyl)-1,2,3,4,6,7,8,9-octahydropyrido[4′,3′:4,5]imidazo[1,2-a]pyrazin-1-yl)thiazol-2-yl)-3-ethylurea], which IC50 is on record?
Answer: Its IC50 is 0.1 µM.

Question: With `N#Cc1ccc(OCC(=O)N2CCc3nc4n(c3C2c2ccc(C3CC3)cc2F)CCNC4)c(Cl)n1` (centres unmarked) [Example 5.2.11, 6-chloro-5-(2-(1-(4-cyclopropyl-2-fluorophenyl)-3,4,6,7,8,9-hexahydropyrido[4′,3′:4,5]imidazo[1,2-a]pyrazin-2(1H)-yl)-2-oxoethoxy)picolinonitrile] as the molecule, how does the IC50 read?
Answer: Its IC50 is 0.108 µM.

Question: How did the IC50 turn out when `Cc1ccc(C2c3c(nc4n3CCCC4)CCN2C(=O)COc2ccc(N3CCCS3(=O)=O)nc2Cl)c(F)c1F` (centres unmarked) [Example 1.9.6, 2-((2-chloro-6-(1,1-dioxidoisothiazolidin-2-yl)pyridin-3-yl)oxy)-1-(1-(2,3-difluoro-4-methylphenyl)-3,4,6,7,8,9-hexahydroimidazo[1,2-a:5,4-c′]dipyridin-2(1H)-yl)ethanone] was run?
Answer: The IC50 was 0.009 µM.

Question: Which IC50 does the source give for `CN(C)C(=O)c1ccc(OCC(=O)N2CCc3nc4n(c3C2c2sccc2F)CCOC4)c(Cl)n1` (centres unmarked) [Example 6.6.2, 6-chloro-5-(2-(6-(3-fluorothiophen-2-yl)-3,4,8,9-tetrahydro-1H-pyrido[4′,3′:4,5]imidazo[2,1-c][1,4]oxazin-7(6H)-yl)-2-oxoethoxy)-N,N-dimethylpicolinamide] here?
Answer: The IC50 was 0.029 µM.

Question: For `Cc1ccc(C2c3c(nc4n3CCNC4)CCN2C(=O)COc2ccc(CN3CCOCC3)cc2Cl)c(F)c1` (centres unmarked) [Example 5.12.2, 2-(2-chloro-4-(morpholinomethyl)phenoxy)-1-(1-(2-fluoro-4-methylphenyl)-3,4,6,7,8,9-hexahydropyrido[4′,3′:4,5]imidazo[1,2-a]pyrazin-2(1H)-yl)ethanone], which IC50 is on record?
Answer: Its IC50 is 0.052 µM.

Question: `O=C(NC1CC1)c1ccc(OCC(=O)N2CCc3nc4n(c3[C@@H]2c2ccc(C3CC3)cc2F)CCCC4)c(Cl)n1` [Example 1.8.6, (S)-6-chloro-N-cyclopropyl-5-(2-(1-(4-cyclopropyl-2-fluorophenyl)-3,4,6,7,8,9-hexahydroimidazo[1,2-a:5,4-c′]dipyridin-2(1H)-yl)-2-oxoethoxy)picolinamide] was tested. Which IC50 did it give?
Answer: Its IC50 is 0.009 µM.

Question: With `CN(C)C(=O)c1ccc(OCC(=O)N2CCc3nc4n(c3C2c2ccc(C3CC3)cc2F)CCOC4)c(Cl)n1` (centres unmarked) [Example 6.2.3, 6-chloro-5-(2-(6-(4-cyclopropyl-2-fluorophenyl)-3,4,8,9-tetrahydro-1H-pyrido[4′,3′:4,5]imidazo[2,1-c][1,4]oxazin-7(6H)-yl)-2-oxoethoxy)-N,N-dimethylpicolinamide] as the molecule, how does the IC50 read?
Answer: Its IC50 is 0.003 µM.
